Experimental data as given in US20060122174A1, “Antiviral treatment” (Henderson Morley Research & Development Limited, priority 2001, published 2006).
Read-outs that look alike come from different tables or passages of the source.

Tested on: type 2 herpes simplex strain 3345
Assay: In vitro bioassay: inhibition of virus replication in infected African green monkey kidney cells
Assay type: cell-based, type 2 herpes simplex virus
Conditions: for inhibition at 1000 µg/mL: frusemide 1 mg/ml, African green monkey kidney cells; for Inhibition of hsv2, Effect of bendrofluazide: 0.25 mg bendrofluazide/ml liquid medium
Text: In vitro bioassays were undertaken to follow the anti-viral activity of a diuretic compound. […] Inhibition of virus replication was scored on the scale: […]

With `NS(=O)(=O)c1cc(C(=O)O)c(NCc2ccco2)cc1Cl` [frusemide, 4-chloro-N-furfuryl-5-sulfamoylanthranilic acid] the inhibition at 1000 µg/mL (Human alphaherpesvirus 2, read-out: Inhibition of hsv2, Effect of frusemide, High multiplicity of infection) was 0%, the inhibition at 1000 µg/mL (Human alphaherpesvirus 2, read-out: Inhibition of hsv2, Effect of frusemide, Low multiplicity of infection) was 40% and the inhibition at 1000 µg/mL (Human alphaherpesvirus 2, read-out: Inhibition of hsv2, Effect of frusemide, Medium multiplicity of infection) was 40%.

`NS(=O)(=O)c1cc2c(cc1C(F)(F)F)NC(Cc1ccccc1)NS2(=O)=O` (stereo not drawn) [bendrofluazide] was tested, and the “Inhibition of hsv2, Effect of bendrofluazide” value (“Inhibition … of bendrofluazide” for short) (High multiplicity of infection) was “++ (40% inhibition)”, the “Inhibition … of bendrofluazide” value (Low multiplicity of infection) was “++++ (80% inhibition)” and the “Inhibition … of bendrofluazide” value (Medium multiplicity of infection) was “++++ (80% inhibition)”.

`CCCCNC(=O)NS(=O)(=O)c1ccc(C)cc1` [tolbutamide] was tested, and the “Inhibition of hsv2, effect of tolbutamide” value (shortened to “Inhibition … of tolbutamide”) (High multiplicity of infection, 0.5 mg tolbutamide/ml liquid medium) was “+ (20% inhibition)”, the “Inhibition … of tolbutamide” value (High multiplicity of infection, 5 mg tolbutamide/ml liquid medium) was “++ (40% inhibition)” and the “Inhibition … of tolbutamide” value (High multiplicity of infection, 50 mg tolbutamide/ml liquid medium) was “+++ (60% inhibition)”. For the same compound, the “Inhibition … of tolbutamide” value (Low multiplicity of infection, 0.5 mg tolbutamide/ml liquid medium) was “++ (40% inhibition)”, the “Inhibition … of tolbutamide” value (Low multiplicity of infection, 5 mg tolbutamide/ml liquid medium) was “+++ (60% inhibition)” and the “Inhibition … of tolbutamide” value (Low multiplicity of infection, 50 mg tolbutamide/ml liquid medium) was “+++++ (100% inhibition)”. The “Inhibition … of tolbutamide” value (Medium multiplicity of infection, 0.5 mg tolbutamide/ml liquid medium) was “+ (20% inhibition)”, the “Inhibition … of tolbutamide” value (Medium multiplicity of infection, 5 mg tolbutamide/ml liquid medium) was “+++ (60% inhibition)” and the “Inhibition … of tolbutamide” value (Medium multiplicity of infection, 50 mg tolbutamide/ml liquid medium) was “++++ (80% inhibition)”.
